Measurements taken from patent US12006503B2, “Fusion proteins and methods thereof” (The Trustees of Columbia University in the City of New York, priority 2012, dated 2024).
“Also recorded” adds a separate entry of the source.

Columns and labels:
[1] = system: intracranial luciferase-expressing FGFR3-TACC3-driven glioma xenografts; assay: Orthotopic (intracranial) FGFR3-TACC3-driven glioma xenografts, drug treatment, survival; assay type: in vivo, mouse; settings: 50 mg/kg, oral, 20 days
Description: Mice were monitored daily and sacrificed when neurological symptoms appeared.

[2] = system: human glioma stem cells GIC-1123; settings: GIC-1123, 72 hours, MTT
Experimental: (§1) Cell culture and cell growth assay. GIC-1123 gliomaspheres were cultured in neurobasal medium (Invitrogen) supplemented with B27, N2 (Invitrogen), EGF and FGF2 (20 ng/ml, PeproTech). Mouse astrocytes Ink4A-Arf−/− were cultured in DMEM supplemented with 10% Fetal Bovine Serum. Cells were seeded at 1,000 cells/well in a 96-well plate and treated with JNJ-42756493. After 72 hours cell viability was assessed using the 3-(4,5-dimethythiazol-2-yl)-2,5-diphenyl tetrazolium bromide (MTT) assay. Data are mean±SEM of six replicates. Experiments were performed three times.

[3] = system: mouse astrocytes expressing FGFR3-TACC3-KD or the empty vector; settings: cells expressing KD mutant fusion or empty vector
Experimental: as §1

[4] = system: mouse astrocytes expressing FGFR3-TACC3; settings: mouse astrocytes expressing FGFR3-TACC3, 72 hours, MTT
Experimental: as §1

[5] = system: all members of the FGFR family; settings: cited from earlier work
[6] = system: nonclinical models with FGFR aberrations; settings: squamous NSCLC, gastric, breast, HCC, endometrial, bladder; cited from earlier work
activated FGFR = settings: cited from earlier work
[7] = system: GIC-1123 tumor xenografts; assay: Subcutaneous GIC-1123 xenografts treated with JNJ-42756493; settings: 12 mg/kg, oral
Experimental: After tumor establishment (arrow) mice were treated with vehicle or JNJ-42756493 (12 mg/kg) for 14 days. Values are mean tumor volumes±SD, (n=9 mice per group). P-value of the slope calculated from the treatment starting point (arrow) is 0.04.
Subcutaneous xenografts and drug treatment. GIC-1123 cells (5×10^5) were injected subcutaneously in the flank of athymic nude (Nu/Nu) mice (Charles River Laboratories). Mice carrying ˜200 mm 3 subcutaneous tumors were randomized to receive 12 mg/kg JNJ-42756493 or DMSO in 1% Tween 80 by oral gavage. Tumor diameters were measured with caliper and tumor volumes estimated using the formula: 0.5×length×width 2. Data are mean±SD of nine mice in each group. Mice were sacrificed when tumors in the control group reached the maximal size allowed by the IACUC Committee at Columbia University.

[8] = system: recurrent GBM harboring FGFR3-TACC3 fusions; assay: Phase I trial of JNJ-42756493 in patients with recurrent GBM harboring FGFR3-TACC3 (MRI, RANO, volumetry)
Description: (A) Post-gadolinium T1 weighted images show the target lesion on the right parietal lobe. […] (B) Analysis of sum of product diameters (SPD) before and during the anti-FGFR treatment (RANO criteria). (C) Analysis of tumor volume (cm3) before and during the anti-FGFR treatment. […] (D) Perfusion images at baseline and after 20 days of anti-FGFR treatment. rCBV (relative cerebral blood volume). Post-gadolinium T1 weighted images with color overlay of rCBV are shown. […] (F) Analysis of sum of product diameters (SPD) before and during the anti-FGFR treatment.
MRI imaging and evaluation of clinical response to JNJ-42756493. Baseline and follow-up imaging assessments were performed on 1.5 Tesla MR imaging systems, including at least axial T1 weighted images before gadolinium injection, Axial or 3D FLAIR (Fluid-Attenuated Inversion-Recovery), dynamic susceptibility contrast MR perfusion (0.1 mmol/kg of gadobutrol), axial and 3D T1 weighted images after gadolinium injection. Tumor response was assessed according to the RANO criteria (33). Contrast-enhancing lesion volume was assessed with the help of a semi-automated volumetry tool (SegmentiX), based on shape-detection and thresholding, with control and manual correction of edges when necessary. Since exclusion of cystic or necrotic portions of the lesion may be affected by operator subjectivity, both were included for volumetric and axial measurements.
DSC (dynamic susceptibility contrast) perfusion datasets were processed with vendor's software suite (Neuroperfusion, Philips), including coregistration and rCBV (relative cerebral blood volume) parametric maps generation with 3 different algorithms (Gamma-variate fitting, Arterial Input Function based deconvolution and Model Free).

FGFR3-TACC3 = biological target: T1, FGFR3-TACC3 (Homo sapiens, UniProt P22607); assay: Western blot of constitutive phosphorylation of FGFR3-TACC3 and FRS2 in Ink4A;Arf-/- astrocytes; assay type: cell-based, mouse; settings: 100 nM PD173074, Ink4A;Arf-/- astrocytes
T1 construct: a protein of 1,048 amino acids resulting from the fusion of a FGFR3 amino-terminal portion of residues 1-758; expressed in transfected cells; host or cells: Ink4A;Arf-/- mouse astrocytes, lentiviral transduction (pLOC-GFP / pTomo vectors)
Experimental: Ink4A; Arf−/− astrocytes transduced with empty lentivirus or a lentivirus expressing FGFR3-TACC3 or FGFR3-TACC3-K508M were left untreated (0) or treated with 100 nM of the FGFR inhibitor PD173074 for the indicated times. Phospho-proteins and total proteins were analyzed by Western blot using the indicated antibodies.

Rat1A cells = assay: Karyotype analysis (chromosome counts, aneuploidy) of Rat1A cells; assay type: cell-based, rat; settings: five days
Experimental: Distribution of chromosome counts of cells arrested in mitosis and analyzed for karyotypes using DAPI. Chromosomes were counted in 100 metaphase cells for each condition to determine the ploidy and the diversity of chromosome counts within the cell population. FGFR3-TACC3 fusion induces aneuploidy.
The upper panel is a karyotype analysis of Rat1A cells transduced with control or FGFR3-TACC3 lentivirus and treated with vehicle (DMSO) or PD173470 (100 nM) for five days.
(§2) Karyotype analysis. Cultured cells were colcemid (20 ng/ml) treated for 90 minutes before harvesting for karyotopic analysis as detailed in Extended Experimental procedures. At least one hundred cells in metaphase were examined for chromosome count. PMSCS was scored in cells where a majority of the sister chromosomes were no longer associated. Two-tailed unpaired t-tests with Welch's correction were performed for comparison of means analysis.
Karyotypic Analysis. The colcemid treated cells were trypsinized, centrifuged for 7 minutes at 200×g, and the cell pellet re-suspended in warmed hypotonic solution and incubated at 37° C. for 13 minutes. The swollen cells were then centrifuged and the pellet re-suspended in 8 ml of Carnoy's fixative (3:1 methanol:glacial acetic acid). […] Slides were stained with DAPI and metaphases were analyzed under a fluorescent microscope.

[9] = system: Rat1A cells and Ink4A;Arf-/- astrocytes; assay: Premature sister chromatid separation (PMSCS) in metaphase spreads; assay type: cell-based; settings: cells expressing FGFR3-TACC3
Description: Correction of premature sister chromatid separation (PMSCS) by PD173470 in cells expressing FGFR3-TACC3. Panels show representative metaphase spreads. DNA was stained by DAPI.
Left, panels show representative metaphase spreads. Right, quantitative analysis of metaphases with loss of sister chromatid cohesion. The number of mitosis with PMSCS in Ink4A; Arf−/− astrocytes was scored in at least 100 methaphases for each condition in three independent experiments. The number of mitosis with PMSCS was scored in triplicate samples of Rat1A cells. FIG. 13D is a graph showing nocodazole was added for the indicated durations to Rat1A-H2B-GFP cells transduced with the specified lentiviruses. The mitotic index at each time point was determined by quantitating the H2B-GFP-positive cells in mitosis at each time point. Data are presented as average and standard deviation (n=3).
as §2

[10] = system: glioma xenografts of FGFR3-TACC3 transformed astrocytes; assay: Subcutaneous glioma xenografts of FGFR3-TACC3 transformed astrocytes, drug treatment; assay type: in vivo, mouse; settings: 50 mg/kg, oral gavage
Experimental: (§3) Subcutaneous xenografts and drug treatment. […] For experiments with FGFR inhibitors, mice carrying ˜200-300 mm 3 subcutaneous tumors derived from Ink4A; Arf−/− astrocytes were randomized to receive 50 mg/kg PD173074 in 0.05 M lactate buffer (pH 5) or an equal volume of lactate buffer by oral gavage. Treatment was administered for three cycles consisting of four consecutive days followed by two days of rest. […] Data are expressed as mean±SE.

Rat1 = assay: Soft agar colony assay, Rat1 cells; assay type: cell-based, rat; settings: Rat1 cells transduced with the construct
Description: FGFR1-TACC1 and FGFR3-TACC3 induce anchorage-independent growth in Rat1A fibroblasts. The number of soft agar colonies was scored from triplicate samples 14 days after plating. Representative microphotographs are shown.

[11] = system: Ink4A;Arf-/- astrocytes in immunodeficient mice; assay: Subcutaneous tumor xenograft formation by lentivirus-transduced Ink4A;Arf-/- astrocytes; assay type: in vivo, mouse
Description: FIG. 3B are photomicrographs showing of immunofluoresence staining of tumors from mice injected with Ink4A; Arf−/− astrocytes expressing FGFR3-TACC3 showing positivity for glioma-specific (Nestin, Oig2 and GFAP) and proliferation markers (Ki67 and pHH3). Sub-cutaneous tumors were generated by Ink4A; Arf−/− astrocytes expressing FGFR-TACC fusions.
as §3

[12] = system: Rat1A cells and Ink4A;Arf-/- astrocytes; assay: Quantitative analysis of chromosome segregation defects in mitoses; assay type: cell-based
Description: Quantitative analysis of metaphase spreads for chromosome segregation defects in Ink4A; ARF−/− astrocytes expressing vector control or FGFR3-TACC3 (upper panel). Microscope imaging analysis of chromosome segregation defects in Ink4A; Arf−/− astrocytes expressing FGFR3-TACC3 or vector control. Representative images of cells with chromosome missegregation. Arrows point to chromosome misalignments, lagging chromosomes and chromosome bridges.
Confocal microscopy imaging. For immunofluorescence of fixed cells, images were recorded with a Z-optical spacing of 0.25 μm using a Nikon AIR MP and a 60×1.3 oil objective and analyzed using ImageJ software (National Institute of Health). For live-cell analyses, Rat1A cells infected with pLNCX-H2B retrovirus and transduced with lentiviral vector or FGFR3-TACC3 fusion were seeded in glass bottom dishes in phenol red free DMEM and followed by time-lapse microscopy using the Nikon AIR MP biostation at 37° C. and 5% CO2/95% air. Images with a Z-optical spacing of 1 μm were recorded every 4 min for 8 h. Images of unchallenged mitosis from early prophase until cytokinesis were processed using ImageJ software (National Institute of Health). The time-point of nuclear envelope breakdown (NEB) was defined as the first frame showing loss of smooth appearance of chromatin and anaphase was the first frame when chromosome movement towards the poles became apparent. […]

[13] = system: Rat1A cells expressing FGFR3-TACC3 fusion; assay: Growth of Rat1A cells expressing FGFR3-TACC3 after FGFR3 shRNA lentivirus (trypan blue exclusion); assay type: cell-based, rat; settings: lentiviral shRNA
Experimental: At the left, parallel cultures of GSC-1123 cells were transduced in triplicate. Rat1A cells expressing FGFR3-TACC3 fusion were transduced with lentivirus expressing a non-targeting shRNA (Ctr) or shRNA sequences targeting FGFR3 (sh2, sh3, sh4). Five days after infection cells were plated at density of 2λ10^4 cells/well in triplicate and the number of trypan blue excluding cells was scored at the indicated times. […] Values are the means±standard deviation (n=3). At the right sided figure, GSC-1123 cells were transduced with lentivirus expressing a non-targeting shRNA (sh-Ctr) or lentivirus expressing sh-3 and sh-4 sequences targeting FGFR3. Western Blot analysis was performed on parallel cultures using the FGFR3 antibody to the detect FGFT3-TACC3 fusion protein. β-actin is shown as a control for loading.
Cloning and Lentiviral production. Lentiviral expression vectors, pLOC-GFP (Open Biosystems) and pTomo-shp53, were used to clone FGFR3, TACC3, FGFR3-TACC3, FGFR3-TACC3-K508M, and FGFR1-TACC1. pTomo-shp53 was a gift of Inder Verma and Dinorah Friedman-Morvinski (Salk Institute, San Diego). The FGFR3-TACC3-K508M mutant was generated using the Phusion Site Direct Mutagenesis kit (NEB, USA). MISSION shRNAs clones (pLK0.1 lentiviral expression vectors) against FGFR3 were purchased from Sigma. The hairpin sequences targeting the FGFR3 gene are—

COc1cc(CCc2cc(NC(=O)c3ccc(N4C[C@@H](C)N[C@@H](C)C4)cc3)n[nH]2)cc(OC)c1 [AZD4547]
survival of mice with intracranial FGFR3-TACC3 glioma [1]: markedly prolonged survival

COc1cc(OC)cc(N(CCNC(C)C)c2ccc3ncc(-c4cnn(C)c4)nc3c2)c1 [JNJ-42756493]
IC50 [2]: 1.55 nM | sensitivity to FGFR inhibition [3]: but not cells expressing the KD mutant fusion or the empty vector | IC50 [4]: 3.03 nM | IC50 values for all members of the FGFR family [5]: low nanomolar range | antitumor activities in nonclinical models with FGFR aberrations [6]: potent antitumor activities | concentration inhibiting tyrosine phosphorylation of activated FGFR (activated FGFR): nanomolar concentrations | growth of GIC-1123 tumor xenografts [7]: potent growth inhibition | tumor regression of GIC-1123 xenografts ([7]; after two weeks): statistically significant tumor regression | change of the enhancing parenchyma of the tumor mass ([8]; Patient 1): −44% | duration of stabilization ([8]; Patient 1): 115 days | toxicity observed during treatment ([8]; Patient 1): grade I hyperphosphatemia, asthenia, dysgueusia, dry mouth, keratitis, and grade II nail changes | tumor response on MRI (RANO sum of product diameters, volumetry) ([8]; Patient 1, 12 mg/day, 7 days on/7 days off): stabilization of the tumor; also recorded: stable disease; also recorded: disease stabilization | extent of tumor vascularity (rCBV) ([8]; Patient 1, MR perfusion): marked reduction | clinical status ([8]; Patient 1, after 3 weeks): marked clinical improvement | time to best response ([8]; Patient 2): 104 days | time to disease progression after start of anti-FGFR ([8]; Patient 2): 134 days | toxicity observed during treatment ([8]; Patient 2): Grade I hyperphosphatemia, nail changes, and mucositis | tumor response category ([8]; Patient 2): minor response | clinical status ([8]; Patient 2, after 4 weeks): clinical improvement | reduction of tumor size according to the RANO criteria ([8]; Patient 2, best response): 22% | tumor reduction according to volumetry ([8]; Patient 2, best response): 28%

CCN(CC)CCCCNc1ncc2cc(-c3cc(OC)cc(OC)c3)c(NC(=O)NC(C)(C)C)nc2n1 [PD173074]
constitutive phosphorylation of the TK domain of FGFR3-TACC3 and of FRS2 (FGFR3-TACC3): abolished | distribution of chromosome counts (Rat1A cells; Rat1A expressing FGFR3-TACC3, 100 nM): restored the narrow distribution of chromosome counts | rescue of the aneuploidy caused by FGFR3-TACC3 (Rat1A cells; Rat1A, 100 nM): over 80% | cohesion defect (premature sister chromatid separation) [9]: largely corrected | cohesion defect (premature sister chromatid separation) ([9]; listed as PD173470): Correction | tumor growth of FGFR3-TACC3 glioma subcutaneous xenografts [10]: potent growth inhibition

FGFR1-TACC1: fusion protein in which the TK domain of FGFR1 is fused upstream of the TACC domain of TACC1 (SEQ ID NO: 150)
soft agar colonies (Rat1): 225.3 ± 10.0 | mice with tumors after subcutaneous injection of astrocytes expressing the fusion protein ([11]; Ink4A;Arf-/- astrocytes, immunodeficient mice): 100% | Subcutaneous tumor xenografts (tumors formed/injections) ([11]; Ink4Arf-/- astrocytes expressing the construct): 8/8 | increase of chromosomal segregation errors versus control cells [12]: three to five fold increase

sh-3: MISSION shRNA hairpin targeting the FGFR3 gene, SEQ ID NO: 183 (guide GTTCCACTGCAAGGTGTACAG; the letters are possibly those of the target site)
growth of cells ectopically expressing FGFR3-TACC3 after FGFR3 silencing [13]: reverted the growth rate

sh-4: MISSION shRNA hairpin targeting the FGFR3 gene, SEQ ID NO: 184 (guide GCACAACCTCGACTACTACAA; the letters are possibly those of the target site)
growth of cells ectopically expressing FGFR3-TACC3 after FGFR3 silencing [13]: reverted the growth rate
